Data set [1] deals with Histamine H2 receptor (Homo sapiens) (UniProt P25021). Description: Antagonist activity at H2R (unknown origin) expressed in HEK293 cells harboring glosensor-22F cAMP plasmid DNA assessed as effect on forskolin-stimulated cAMP accumulation at 10 uM preincubated with cells followed by forskolin addition measured after 10 mins by luminescence assay. It counts as functional, cell-based. (In general: Changes in cAMP serve as a functional read-out for many G protein-coupled receptors.)

In data set [2] the target is Histamine H1 receptor (Homo sapiens) (UniProt P35367). Description: Agonist activity at H1R (unknown origin) expressed in HEK293 cells harboring luc2P/NFAT-RE plasmid at 10 uM after 6 to 8 hrs by luciferase reporter gene assay. Type of data set: functional, cell-based. For orientation: In a reporter assay the amount or activity of a reporter protein is the signal.
The target of data set [3] is T1, Histamine H3 receptor (Homo sapiens, UniProt Q9Y5N1). Description: Agonist activity at human H3R expressed in HEK293 cells harboring glosensor-22F cAMP plasmid DNA assessed as inhibition of forskolin-stimulated cAMP accumulation preincubated with cells followed by forskolin addition measured after 10 mins by luminescence assay. Type of data set: functional, cell-based. The following applies: read-out: EC50.

Data set [4] deals with T2, 5-hydroxytryptamine receptor 2C (Homo sapiens) (UniProt P28335).
T2 sequence (whole entry): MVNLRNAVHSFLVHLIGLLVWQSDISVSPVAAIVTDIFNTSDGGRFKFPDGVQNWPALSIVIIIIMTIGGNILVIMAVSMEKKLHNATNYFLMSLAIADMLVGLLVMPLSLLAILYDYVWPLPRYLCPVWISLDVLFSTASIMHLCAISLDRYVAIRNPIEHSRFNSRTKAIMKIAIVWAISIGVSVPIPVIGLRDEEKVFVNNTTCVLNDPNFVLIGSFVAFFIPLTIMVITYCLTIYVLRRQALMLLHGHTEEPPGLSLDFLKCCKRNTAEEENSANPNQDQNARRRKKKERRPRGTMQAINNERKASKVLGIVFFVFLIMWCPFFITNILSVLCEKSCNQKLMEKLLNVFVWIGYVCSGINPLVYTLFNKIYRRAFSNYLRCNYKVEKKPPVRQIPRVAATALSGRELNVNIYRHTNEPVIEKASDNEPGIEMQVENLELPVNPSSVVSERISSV
Nature of the data set: Antagonist activity at human 5-HT2C expressed in HEK293 cells harboring luc2P/NFAT-RE plasmid at 10 uM after 6 to 8 hrs by luciferase reporter gene assay. Type of data set: functional, cell-based.

The target of data set [5] is Histamine H1 receptor (Homo sapiens) (UniProt P35367). Nature of the data set: Antagonist activity at H1R (unknown origin) expressed in HEK293 cells harboring luc2P/NFAT-RE plasmid at 10 uM after 6 to 8 hrs by luciferase reporter gene assay. It counts as functional, cell-based.
Data set [6] deals with Histamine H4 receptor (Homo sapiens) (UniProt Q9H3N8). Nature of the data set: Agonist activity at H4R (unknown origin) expressed in HEK293 cells harboring glosensor-22F cAMP plasmid DNA assessed as inhibition of forskolin-stimulated cAMP accumulation at 10 uM preincubated with cells followed by forskolin addition measured after 10 mins by luminescence assay. Type of data set: functional, cell-based.

Another data set deals with HEK-293T. Description: Cytotoxicity against HEK293T cells assessed as reduction in cell viability at 1 to 10 uM after 24 hrs by XTT assay. Type of data set: cell-based. The following applies: human. A general note: Tetrazolium assays rely on reduction of a dye to a coloured formazan, in cell work by metabolically active cells.
The target of data set [7] is Luciferin 4-monooxygenase (Photinus pyralis) (UniProt P08659). Nature of the data set: Inhibition of firefly luciferase activity expressed in HEK293 cells assessed as reduction in forskolin-stimulated cAMP accumulation up to 10 uM preincubated with cells followed by forskolin addition measured after 10 mins by luminescence assay. Type of data set: cell-based.
Data set [8] has as its target Histamine H4 receptor (Homo sapiens) (UniProt Q9H3N8). Description: Antagonist activity at H4R (unknown origin) expressed in HEK293 cells harboring glosensor-22F cAMP plasmid DNA assessed as effect on forskolin-stimulated cAMP accumulation at 10 uM preincubated with cells followed by forskolin addition measured after 10 mins by luminescence assay. Type of data set: functional, cell-based.

For data set [9], the target named is T1, Histamine H3 receptor. Description: Agonist activity at human H3R expressed in HEK293 cells harboring glosensor-22F cAMP plasmid DNA assessed as inhibition of forskolin-stimulated cAMP accumulation at 1 uM preincubated with cells followed by forskolin addition measured after 10 mins in presence of H3R antagonist GSK334429 by luminescence assay. Type of data set: functional, cell-based.

Data set [10] has as its target Histamine H2 receptor (Homo sapiens) (UniProt P25021). Description: Agonist activity at H2R (unknown origin) expressed in HEK293 cells harboring glosensor-22F cAMP plasmid DNA assessed as inhibition of forskolin-stimulated cAMP accumulation at 10 uM preincubated with cells followed by forskolin addition measured after 10 mins by luminescence assay. Type of data set: functional, cell-based.

Data set [11] can be described thus: Octanol/water partition co-efficient, log P of the compound after 24 hrs by HPLC based shake-flask method. Type of data set: physicochemical.
In data set [12] the target is T2, 5-hydroxytryptamine receptor 2C (Homo sapiens). Nature of the data set: Agonist activity at human 5-HT2C expressed in HEK293 cells harboring luc2P/NFAT-RE plasmid at 10 uM after 6 to 8 hrs by luciferase reporter gene assay. Type of data set: functional, cell-based.
For data set [13], the system named is Mus musculus. Description: Anorexic effect in diet-induced obese C57BL/6J mouse assessed as reduction in cumulative food intake at 10 mg/kg, po pretreated for 30 mins followed by food addition measured after 4 hrs. Type of data set: functional, organism-based.
Data set [14] relates to Mus musculus. Nature of the data set: Anorexic effect in diet-induced obese C57BL/6J mouse assessed as reduction in cumulative food intake at 20 mg/kg, po pretreated for 30 mins followed by food addition measured after 4 hrs. Type of data set: functional, organism-based.

Activity calls are given as the source filed them. Unless noted, the rule behind the calls is not given here.

What is called EC50 is the concentration at which the effect is half-maximal. The term logP denotes the decadic logarithm of the partition coefficient of the neutral form, usually between octanol and water. High values mean higher lipophilicity, low ones lower lipophilicity.

Sequence of Histamine H1 receptor (Homo sapiens) (P35367 whole entry): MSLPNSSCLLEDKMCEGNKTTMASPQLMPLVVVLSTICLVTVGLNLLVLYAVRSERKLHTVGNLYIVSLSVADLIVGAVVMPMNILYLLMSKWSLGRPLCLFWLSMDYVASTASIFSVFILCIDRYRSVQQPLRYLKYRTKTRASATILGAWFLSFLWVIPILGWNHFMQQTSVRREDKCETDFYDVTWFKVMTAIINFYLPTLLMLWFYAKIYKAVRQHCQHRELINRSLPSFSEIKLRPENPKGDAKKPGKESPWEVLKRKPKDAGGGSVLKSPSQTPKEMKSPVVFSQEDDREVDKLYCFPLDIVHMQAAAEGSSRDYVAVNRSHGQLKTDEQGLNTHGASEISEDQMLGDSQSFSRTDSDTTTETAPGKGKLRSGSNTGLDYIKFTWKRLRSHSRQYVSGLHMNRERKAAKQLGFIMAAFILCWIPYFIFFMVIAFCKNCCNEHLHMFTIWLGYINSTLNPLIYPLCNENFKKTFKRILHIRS
Sequence of Histamine H4 receptor (Homo sapiens) (Q9H3N8 whole entry): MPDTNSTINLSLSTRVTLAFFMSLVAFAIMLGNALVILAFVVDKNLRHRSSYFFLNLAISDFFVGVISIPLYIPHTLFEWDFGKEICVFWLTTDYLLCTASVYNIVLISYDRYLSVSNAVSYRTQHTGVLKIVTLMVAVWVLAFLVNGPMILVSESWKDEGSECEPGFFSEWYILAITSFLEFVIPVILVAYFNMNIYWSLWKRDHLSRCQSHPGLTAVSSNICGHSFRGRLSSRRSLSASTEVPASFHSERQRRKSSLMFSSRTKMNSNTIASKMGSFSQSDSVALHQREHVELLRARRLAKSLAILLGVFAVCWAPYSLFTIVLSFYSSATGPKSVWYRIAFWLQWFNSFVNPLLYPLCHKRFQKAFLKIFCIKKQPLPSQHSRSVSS
T1 sequence (Q9Y5N1 whole entry): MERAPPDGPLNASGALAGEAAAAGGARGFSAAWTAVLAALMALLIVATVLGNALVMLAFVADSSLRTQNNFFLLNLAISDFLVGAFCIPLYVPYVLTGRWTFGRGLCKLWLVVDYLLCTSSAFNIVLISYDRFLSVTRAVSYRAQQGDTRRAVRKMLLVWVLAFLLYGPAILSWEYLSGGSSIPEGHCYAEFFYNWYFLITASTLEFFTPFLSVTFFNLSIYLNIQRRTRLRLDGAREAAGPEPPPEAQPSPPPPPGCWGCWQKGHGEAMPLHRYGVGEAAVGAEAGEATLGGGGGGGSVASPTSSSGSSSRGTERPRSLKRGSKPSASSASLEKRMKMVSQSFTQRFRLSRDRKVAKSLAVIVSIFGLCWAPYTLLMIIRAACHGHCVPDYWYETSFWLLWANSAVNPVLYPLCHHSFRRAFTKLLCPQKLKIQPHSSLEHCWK
Sequence of Histamine H2 receptor (Homo sapiens) (P25021 whole entry): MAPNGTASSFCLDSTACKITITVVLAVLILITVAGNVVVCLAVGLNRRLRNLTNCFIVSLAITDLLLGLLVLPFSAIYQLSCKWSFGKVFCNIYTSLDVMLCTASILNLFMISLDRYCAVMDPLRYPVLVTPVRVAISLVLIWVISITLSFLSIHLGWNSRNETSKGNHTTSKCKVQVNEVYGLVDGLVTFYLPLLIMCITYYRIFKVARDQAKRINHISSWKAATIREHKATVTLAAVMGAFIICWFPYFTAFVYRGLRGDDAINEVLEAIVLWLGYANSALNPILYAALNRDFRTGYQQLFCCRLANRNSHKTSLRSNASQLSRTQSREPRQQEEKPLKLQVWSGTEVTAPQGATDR
Sequence of Luciferin 4-monooxygenase (Photinus pyralis) (P08659 whole entry): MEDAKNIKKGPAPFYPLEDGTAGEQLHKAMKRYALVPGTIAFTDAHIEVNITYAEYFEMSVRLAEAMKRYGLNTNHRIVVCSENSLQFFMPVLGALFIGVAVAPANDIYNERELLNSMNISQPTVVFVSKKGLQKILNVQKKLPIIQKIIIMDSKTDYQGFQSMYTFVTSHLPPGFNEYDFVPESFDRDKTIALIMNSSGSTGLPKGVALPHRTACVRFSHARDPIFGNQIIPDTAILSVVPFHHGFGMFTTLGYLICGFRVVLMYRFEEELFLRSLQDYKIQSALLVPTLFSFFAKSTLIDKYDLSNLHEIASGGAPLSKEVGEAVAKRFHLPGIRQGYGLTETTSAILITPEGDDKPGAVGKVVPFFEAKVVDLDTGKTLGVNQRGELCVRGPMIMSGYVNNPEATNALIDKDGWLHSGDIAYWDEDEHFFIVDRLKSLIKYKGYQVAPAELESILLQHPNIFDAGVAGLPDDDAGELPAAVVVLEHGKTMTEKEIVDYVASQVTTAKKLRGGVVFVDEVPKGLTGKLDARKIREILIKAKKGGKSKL

Regarding `O=C1C=C[C@]23C(c4ccccc4)=CC(=O)N2[C@H](c2ccc([N+](=O)[O-])cc2)C(=O)N[C@@H]3C1`, the inhibition result in [1], in data set [4], in data set [5], in [6], in data set [7] and in [8] was “inactive” each time. The inhibition result (on Histamine H3 receptor [9]; in data set [10]) was “inactive” each time. Moreover, the result in data set [2] and in [12] was inactive. In addition, the EC50 on Histamine H3 receptor [3] is 0.3 nM. The Activity result in the data set with HEK-293T is “Non-Toxic”. Besides, the logP at 24 h in data set [11] was 1.78.
Take `C[C@H]1CNCCc2ccc(Cl)cc21`: in the data set on Mus musculus [13], the outcome was Active.
With `COc1cc(N2C(=O)C(=Cc3ccccc3)C2(C(=O)NC(C)(C)C)c2cc(F)cc(F)c2)cc(OC)c1OC` (centres undefined), the inhibition result in data set [1], in [4], in [5], in data set [6], in data set [7] and in data set [8] was “inactive” in each case. The inhibition result (on Histamine H3 receptor [9]; in data set [10]) was “inactive” in each case. Also, the result in [2] and in data set [12] was inactive. Moreover, the EC50 at Histamine H3 receptor [3] was 0.3 nM. In addition, the Activity result with HEK-293T is recorded as “Non-Toxic”. Further, in data set [11], the logP at 24 h came out at 2.34.
With `O=C1C=C[C@]23C(c4ccccc4)=CC(=O)N2[C@H](c2ccc(C(F)(F)F)cc2)C(=O)N[C@@H]3C1`, the inhibition entry in data set [1], in data set [4], in [5], in data set [6], in data set [7] and in data set [8] was “inactive” in each case. In addition, the inhibition result (on Histamine H3 receptor [9]; in [10]) was “inactive” in each case. Besides, the outcome in data set [2] and in [12] was inactive. Besides, on Histamine H3 receptor [3], the EC50 amounted to 94 nM. Further, in the data set on HEK-293T, the Activity entry is reported as “Non-Toxic”. Also, the logP at 24 h in data set [11] came out at 2.1.
Take `COc1ccc(NC2(c3cccc(Cl)c3)C(=O)N(C3CCCCC3)C(=O)/C2=C/c2ccccc2)cc1OC` (centres undefined): the inhibition entry in data set [1], in [4], in data set [5], in data set [6], in data set [7] and in [8] was “inactive” each time. Moreover, the inhibition result (on Histamine H3 receptor [9]; in data set [10]) was “inactive” throughout. Besides, the outcome in [2] and in data set [12] was inactive. The EC50 at Histamine H3 receptor [3] amounted to 2.7 nM. In the data set with HEK-293T, the Activity entry is on record as “Non-Toxic”. The log partition coefficient (logP) at 24 h in data set [11] came out at 2.45.
For `COc1cc(NC2(c3cccc(Cl)c3)C(=O)N(C(C)(C)C)C(=O)/C2=C/c2ccccc2)cc(OC)c1OC` (centres undefined), the inhibition entry in data set [1], in data set [4], in data set [5], in [6], in data set [7] and in data set [8] was “inactive” in each case. Moreover, the inhibition entry (at Histamine H3 receptor [9]; in data set [10]) was “inactive” each time. For the same compound, the result (in data set [2]; with Mus musculus [13]; in data set [12]) was inactive. In addition, the EC50 at Histamine H3 receptor [3] was 2.7 nM. Also, the result in the data set with Mus musculus [14] was Active. The Activity result with HEK-293T is on record as “Non-Toxic”. In data set [11], this compound yielded a logP at 24 h of 2.96.
For the compound `O=C1C=CC2(C=C1)C(c1ccccc1)=CC(=O)N2C(C(=O)NC1CCCCC1)c1ccc(Cl)cc1` (centres undefined), the inhibition entry in data set [1], in data set [4], in [5], in data set [6], in [7] and in data set [8] was “inactive” each time. Further, the inhibition entry (at Histamine H3 receptor [9]; in data set [10]) was “inactive” each time. For the same compound, the result in [2] and in data set [12] was inactive. Besides, the EC50 at Histamine H3 receptor [3] worked out at 104 nM. For the same compound, the Activity result in the data set on HEK-293T was “Non-Toxic”. The logP at 24 h in data set [11] came to 3.8.
Consider `COc1cc(N2C(=O)C(=Cc3ccccc3)C2(C(=O)NC2CCCCC2)c2ccc(F)cc2)cc(OC)c1OC` (centres undefined), for which the inhibition result in [1], in data set [4], in [5], in [6], in data set [7] and in data set [8] was “inactive” throughout. In addition, the inhibition entry (on Histamine H3 receptor [9]; in [10]) was “inactive” in each case. The outcome in [2] and in data set [12] was inactive. Further, the EC50 on Histamine H3 receptor [3] was 104 nM. Also, in the data set on HEK-293T, the Activity entry is listed as “Non-Toxic”. For the same compound, the logP at 24 h in data set [11] is 1.85.
